Results on 1 compound are retold here after US7557109B2, “Treatment for attention-deficit hyperactivity disorder” (priority 2001, dated 2009).

Common to all, as to format: in vivo
One data set concerns wild-type mice. The data set can be described thus: DRL-36s schedule after FR5 conditioning, wild-type mice. As to the method: (§1) Experiments were conducted in eight identical mouse operant chambers (16×14×13 cm) with stainless steel grid floors (ENV-307M; Med Associates Inc., Georgia, Vt., USA) housed in sound-insulating and ventilated cubicles. Each chamber was equipped with two ultra-sensitive retractable levers, one on each side of a food cup containing photocells to register nose poke behavior and in which a pellet dispenser delivered 20 mg food pellets (Formula A/I, P.J. Noyes Company Inc., Lancaster, N.H., USA). A red house light (50 lux) was located in the center of the wall opposite to the food cup and levers. Stimulus lights were located above each lever and above the food cup. Experimental sessions were controlled and data were recorded by a computer.
(§2) Mice trained on DRL procedure first received operant conditioning. DRL-36s task was adapted from procedures used in rats (O'Donnell and Seiden, supra). Briefly, mice first learned to respond for food under a DRL 6 sec schedule, which means that mice had to wait at least 6 seconds between successive lever presses in order to obtain a food reward. Subsequently the schedule requirement was increased every session in steps of 6 sec to 36 sec (DRL 36 sec). Each session started with the illumination of the house light, the stimulus light above the food cup and the presentation of the left lever for the duration of the session. […] If the mouse presses too soon, no reinforcement is given, the clock is reset to zero, and a new 36-sec waiting period starts. In this way, the DRL-36s schedule task primarily measures waiting strategies which reflect hyperactivity-impulsivity behaviors associated with ADHD. Animals were trained until performances on the DRL 36 sec schedule had stabilized (approximately 25 sessions). All training sessions lasted 60 min and were conducted 5 days per week from Monday-Friday. The total number of lever presses (responses), the total number of reinforcements, and the inter-response times (IRT) are recorded.
Data were analyzed as described elsewhere (Richards et al., J. Exp. Anal. Behav. 60:361-385, 1993; Sabol et al., Psychopharmacology 121:57-65, 1995). The inter-response time (IRT) analysis included three measures for the characterization of DRL 36 sec IRT distributions: peak area, peak location and burst ratio. Only peak area (PkA) and peak location (PkL) are presented. The PkA measure is the area of the obtained IRT distribution of a mouse above the corresponding negative exponential, a computation based on mean of obtained IRT durations excluding the burst component of IRT<3 sec (see Richards et al., supra, for details). […] Thus, decreases in PkA indicate that the mouse's IRT distribution becomes more similar to random performance indicating loss of schedule control. PkL is calculated as the median of the area of the obtained IRT distribution above the corresponding negative exponential.
Mice were conditioned and challenged on a DRL-36s schedule according to the methods of Example 7, with the following modifications. Because 1BKO mice had difficulty learning the DRL-36s schedule following conditioning on an FR1, wild-type and 1BKO mice were conditioned on a fixed rate 5 (FR5) schedule. In FR5, instead of pressing the lever once for a reward, animals have to press 5 times. The rationale for changing the operant conditioning was that by increasing the number of responses necessary for reinforcement, the wild-type mice should have greater difficulty and the 1BKO (which have higher response rates anyway) should have less difficulty getting reinforcements.

The test system of data set [1] is 5-HT1B knockout (1BKO) mice. Nature of the data set: DRL-36s schedule after FR5 conditioning, 5-HT1B knockout mice. The protocol:
as §1, §2
Data were analyzed as described elsewhere (Richards et al., J. Exp. Anal. Behav. 60:361-385, 1993; Sabol et al., Psychopharmacology 121:57-65, 1995). The inter-response time (IRT) analysis included three measures for the characterization of DRL 36 sec IRT distributions: peak area, peak location and burst ratio. Only peak area (PkA) and peak location (PkL) are presented. The PkA measure is the area of the obtained IRT distribution of a mouse above the corresponding negative exponential, a computation based on mean of obtained IRT durations excluding the burst component of IRT<3 sec (see Richards et al., supra, for details). […] PkL is calculated as the median of the area of the obtained IRT distribution above the corresponding negative exponential. […]

For data set [2], the system named is coloboma (Cm) mutant mice. From the text: Heterozygote coloboma mice were originally purchased from The Jackson Laboratory (Bar Harbor, Me.) and were bred and maintained in our colony. In the current study, 20 mutant mice and 25 wild-type littermates, all aged 8 to 10 weeks, were used. Animals were divided into 4 groups: mutant/drug-treatment (n=11), mutant/vehicle-control (n=9), wild-type/drug-treatment (n=13), wild-type/vehicle-control (n=12). Age and gender were balanced among groups. All animals were housed as littermates (2-4 mice per cage) and were maintained on ad libitum food and water with a 12 hr light/dark cycle.
Open-field testing was performed under normal lighting conditions. Mice were brought into the experimental room and allowed at least 1 hr of acclimatization. Thirty minutes prior to testing, animals received an ip. injection of either d-amphetamine (4 mg/kg), eltoprazine (0.5 mg/kg) or saline. The mice were then placed in the activity monitor arenas (27×27×20 cm, Med Associates). Four animals of matching genotype and treatment were tested at one time. Each testing session lasted 40 minutes, after which animals were returned to their home cages. An automated infrared beam array system measured locomotor activity (total distance traveled) and number of center entries (zone crossings).

[3] abbreviates: 0.5 mg/kg and 1 mg/kg i.p. (FIG. 13A).

With `c1cc2c(c(N3CCNCC3)c1)OCCO2` [eltoprazine, 1-(2,3-dihydro-1,4-benzodioxanyl-5-yl) piperazine], the number of reinforcements result (in the data set on wild-type mice (setting [3]); in data set [1] (setting [3])) was “significantly decreased reinforcements” throughout. The response rate result (in the data set on wild-type mice (0.5 mg/kg i.p. (FIG. 13B)); in data set [1] (0.5 mg/kg i.p. (FIG. 13B))) was “significantly decreased response rates” throughout. The “reduction of total ambulatory distance from that of saline-treated Cm mutants” value in data set [2] (0.5 mg/kg i.p.) is “more than 50%”. In addition, the “number of zone crossings” value in data set [2] (0.5 mg/kg i.p. (FIG. 5B)) is reported as “decreased the number of zone crossings in Cm mutants to within the range of saline-treated wild-type mice”. Moreover, the “exploratory preference (center vs periphery of arena)” value in data set [2] (0.5 mg/kg i.p. (FIG. 6A, 6B)) was “no effect on exploratory preference”. Moreover, the rearing behavior result in data set [2] (0.5 mg/kg i.p. vs saline (FIG. 6C, 6D)) is “same pattern of rearing behavior”. The compound also yielded a total ambulatory distance in data set [2] (0.5 mg/kg i.p., 40 min session, saline 17725±6636 cm (FIG. 5A)) of 8641±1811. In addition, the sedative effect entry in data set [2] (0.5 mg/kg i.p., open field) is “no sedative effect”.
